Experiments:
line DC-3F/AD [1] = assay: Cytotoxicity (Microculture Tetrazolium Assay): reversal of resistance to actinomycin D, line DC-3F/AD; type: cell-based, Chinese hamster; conditions: 4 days
Text: The pharmacological study of the compounds of the present invention consisted first of all in an evaluation in vitro carried out on resistant cells. The parameter measured is the cytotoxicity of the antitumour drug, quantified in the absence and in the presence of the reversing compound.
The cells are distributed on microplates and exposed to the cytotoxic compounds (actinomycin D for line DC-3F/AD and adriamycin for line KB-Al) at 9 concentrations (2 by 2 series dilutions). The compounds tested for their capacity to reverse MDR are added at the same time as the cytotoxic agent.
The cells are then incubated for 4 days. […] The results are expressed as a reversion factor (RF): PG,29 [formula]

line DC-3F/AD [2] = assay: Flow cytometry: intracellular accumulation of adriamycin by cells of the line DC-3F/AD; type: cell-based, Chinese hamster; conditions: ADR 50 μM, 5 hours
Text: Also measured was the effect of the compounds on the intracellular concentration of the cytotoxic agent. In effect, the known compounds for reversing MDR act by increasing the intracellular concentration of cytotoxic agent. This effect is the consequence of inhibiting the action of gP 170 which is responsible for the efflux of the drug.
By measuring that fluorescence, it is thus possible to obtain a relative measurement of the intracellular concentration of ADR.
The cells 500×10^3 per ml were exposed simultaneously to ADR at a fixed concentration (50 μM) and to the tested compounds at various concentrations. After 5 hours' incubation, the intracellular accumulation of ADR was evaluated by FCM. […] The analysis of each of the samples was carried out on a total of 10,000 cells at a rate of 1,000 cells per second.
The results were presented in the form of linear histograms of the intracellular ADR fluorescence.
Expression of the results: for each of the histograms the mean fluorescence per channel (MEAN) was determined by the information system of the apparatus. For all experiments:
a negative control (cells without ADR) fixed the autofluorescence threshold.
a positive control (cells with ADR) determined the MEAN value=MN1.
the "test" tubes (cells with ADR and with compound) were used to determine, for each of the compounds and at each of the concentrations, the MEAN values=MN2.
The results are expressed in the form of variations from the mean fluorescence obtained for each of the "test" tubes (MN2) in relation to the mean fluorescence obtained with the positive control (MNl): VAR-MEAN=MN2-MN1. The parameter expressed is thus the increase in ADR fluorescence in the presence of the tested compounds.

resistant line P/388/VCR = assay: Antitumour activity in vivo: increase in antitumour activity of vincristine on murine leukaemia P 388/VCR; set-up: species or system murine; female B6D2Fl mice; conditions: with vincristine […] i.p., ± sem, no compound: 146 ± 2
Text: This study was completed by an in vivo study, using a murine leukaemia resistant to vincristine (P/388/VCR) and using the compounds in association with vincristine.
The sensitive parent line P 388 (murine leukaemia) and the sub-line resistant to vincristine, P 388/VCR, were supplied by NCI (Frederick, USA). The tumour cells (10^6 cells) were inoculated on day 0 into the intraperitoneal cavity of female B6D2Fl mice (Iffa Credo, France) weighing from 18 to 20 g (groups of 8 to 10 animals).
Every day for 4 days, starting from day 1, the animals received: […]
30 to 60 minutes later, an administration by the i.p. route of 0.25 mg/kg of vincristine (used as a reference antitumour agent).
The tumour activity is expressed as follows: [formula]
The values are mean values obtained in independent experiments (± sem when n is greater than or equal to 3).

[3] = 100 mg/kg i.p. daily for 4 days

| Structure (SMILES) | Reversion factors (cytotoxicity) with the line DC-3F/AD (line DC-3F/AD [1]; 0.5 μM compound) | Reversion factors (cytotoxicity) with the line DC-3F/AD (line DC-3F/AD [1]; 1 μM compound) | Reversion factors (cytotoxicity) with the line DC-3F/AD (line DC-3F/AD [1]; 5 μM compound) | VAR-MEAN (increase in ADR fluorescence), line DC-3F/AD (line DC-3F/AD [2]; 1.0 μM compound) | VAR-MEAN (increase in ADR fluorescence), line DC-3F/AD (line DC-3F/AD [2]; 5.0 μM compound) | VAR-MEAN (increase in ADR fluorescence), line DC-3F/AD (line DC-3F/AD [2]; 10 μM compound) | VAR-MEAN (increase in ADR fluorescence), line DC-3F/AD (line DC-3F/AD [2]; […] compound) | T/C % (resistant line P/388/VCR; 50 mg/kg i.p. daily for 4 days) | T/C % (resistant line P/388/VCR; [3]) |
| --- | --- | --- | --- | --- | --- | --- | --- | --- | --- |
| C=CCNc1nc(NCC=C)nc(N2CCC(NCC3c4ccccc4COc4ccccc43)CC2)n1 (racemic) [Example 19, 2,4-diallylamino-6-{4-[((R,S)-6,11-dihydro-dibenzo[b,e]oxepin-11-yl)methylamino]piperidin-1-yl}-1,3,5-triazine] | 3.8 | 63 | 2525 | 13.1 | 25.5 | 25.3 | 22.6 | 167 ± 7% | 184 ± 7% |
| C=CCNc1nc(NCC=C)nc(N2CCC(NCC3c4ccccc4N(C)S(=O)(=O)c4cc(Cl)ccc43)CC2)n1 (racemic) [Example 21, 2,4-diallylamino-6-{4-[(8-chloro-10,10-dioxo-11-methyl-(R,S)-dibenzo[c,f]thiazepin-5-yl)methylamino]piperidin-1-yl}-1,3,5-triazine] | 1.2 | 18 | 2804 | 8.1 | 22.8 | 24.1 | 21.1 | 154% | 148% |
| C=CCNc1nc(NC)nc(N2CCC(NCC3c4ccccc4COc4ccccc43)CC2)n1 (racemic) [Example 28, 2-allylamino-4-methylamino-6-{4-[((R,S)-6,11-dihydro-dibenzo[b,e]oxepin-11-yl)methylamino]piperidin-1-yl}-1,3,5-triazine] | – | 18.1 | 600.4 | 4.3 | 16.8 | 21.5 | 12.8 | 170% | 171% |
| C=CCNc1nc(NCC)nc(N2CCC(NCC3c4ccccc4COc4ccccc43)CC2)n1 (racemic) [Example 29, 2-allylamino-4-ethylamino-6-{4-[((R,S)-6,11-dihydrodibenzo[b,e]oxepin-11-yl)methylamino]piperidin-1-yl}-1,3,5-triazine] | 1.7 | 33.8 | 1327.5 | 6.4 | 18.0 | 21.8 | 13.3 | 171 ± 6% | 185 ± 7% |
| C=CCNc1nc(NCC=C)nc(N2CCC(NCC3c4ccccc4CCc4cc(OC)ccc43)CC2)n1 (racemic) [Example 31, 2,4-diallylamino-6-{4-[((R,S)-10,11-dihydro-5H-2-methoxydibenzo[a,d]cyclohepten-5-yl)methylamino]piperidin-1-yl)-1,3,5-triazine] | 3.1 | 85.9 | 1913.4 | 9.4 | 30.8 | – | 26.6 | 159% | 177% |
| C=CCNc1nc(NCC=C)nc(N2CCC(NCC3c4ccccc4CCc4ccccc43)CC2)n1 [Example 3, 2,4-Diallylamino-6-{4-[(10,11-dihydro-5H-dibenzo[a,d]cyclohepten-5-yl)methylamino]piperidin-1-yl}-1,3,5-triazine] | 43 | 236 | 3187 | 20.2 | 28.3 | 29.6 | 25.8 | 208 ± 23% | 193 ± 3% |
| C=CCNc1nc(NCCC)nc(N2CCC(NCC3c4ccccc4CCc4ccccc43)CC2)n1 [Example 5, 2-allylamino-4-propylamino-6-{4-[(10,11-dihydro-5H-dibenzo[a,d]cyclohepten-5-yl)methylamino]piperidin-1-yl}-1,3,5-triazine] | 3.8 | 81 | 2753 | 17.9 | 27.3 | 24.9 | 23.5 | 184% | 195% |
| C=CCNc1nc(NCC=C)nc(N2CCC(NCC3c4ccccc4C=Cc4ccccc43)CC2)n1 [Example 11, 2,4-diallylamino-6-{4-[(5H-dibenzo[a,d]cyclohepten-5-yl)methylamino]piperidin-1-yl}-1,3,5-triazine] | 2 | 26 | 1408 | 12.7 | 24.5 | 25.8 | 20.2 | 156% | 168 ± 15% |
| C=CCNc1nc(NCC=C)nc(N2CCC(N(C)CC3c4ccccc4CCc4ccccc43)CC2)n1 [Example 30, 2,4-diallylamino-6-{4-[N-((10,11-dihydro-5H-dibenzo[a,d]cyclohepten-5-yl)methyl)-N-methylamino]piperidin-1-yl}-1,3,5-triazine] | – | 2.3 | 834.0 | 5.9 | 17.8 | 19.0 | 12.3 | – | – |

Source: patent US5238936A, “Trisubstituted triazines” (Adir et Compagnie, priority 1991, dated 1993)
